Laboratory results taken from patent US7584718B2, “Growing marine fish in fresh water” (MariCal, Inc., priority 2000, dated 2009).

System: full-length cation receptor (CaR) from the dogfish shark
Experiment: Dogfish shark CaR expressed in human HEK cells, response to ionic composition of extracellular fluid
Type: cell-based
Conditions: extracellular fluid bathing HEK cells; range from freshwater to seawater
Source text: Polyvalent cation-sensing receptors (PVCRs) serve as salinity sensors in fish. These receptors are localized to the apical membranes of various cells within the fish's body (e.g., in the gills, intestine, kidney) that are known to be responsible for osmoregulation. A full-length cation receptor (CaR) from the dogfish shark has been expressed in human HEK cells. […] The ionic concentrations responded to encompassed the range which includes the transition from freshwater to seawater. Expression of PVCR mRNA is also modulated in fish after their transfer from freshwater to seawater, and is modulated by PVCR agonists.

Row | SMILES | Receptor response to alterations in ionic composition
1 | [Mg+2] [Mg^2+, magnesium] | respond to alterations
2 | [Cl-].[Na+] [NaCl, sodium chloride] | respond to alterations
3 | [Ca+2] [Ca^2+, calcium] | respond to alterations
